This is an account of results in US9067966B2, “Lupeol-type triterpene derivatives as antivirals” (priority 2009, dated 2015).

As a reminder, the IC50 is the concentration at which inhibition is half-maximal. The CC50 is the concentration that lowers cell viability or growth by half. What is called inhibition is how much of the control response was suppressed.

Common to all, as to assay type: cell-based
Data set [1] deals with HIV-1 strain NL4-3. Kind of data set: Anti-HIV-1 luciferase indicator assay in MT2 cells, NL4-3. The following applies: viral strain NL4-3; for IC50: Human immunodeficiency virus 1, NL43, MT2, MT2 cells; for TI / Safety Index (CC50/IC50): MT2 cells. As for the experimental part: (§1) Compound was dissolved in DMSO to make 30 mM stock. Then the 30 mM stock is further diluted to 4 mM using DMSO. The 4 mM stock was used as the top concentration to carry out an 11-point, 3-fold dilution scheme using DMSO in a 96-well plate to make the compound dose plate. Compounds in the dose plate were transferred to a new 96-well plate (working plate) containing PBS with 0.05% pluronic acid. From this working plate, the compound solution was transferred to the 384-well assay plates.
(§2) Control compounds used in compound control wells were prepared and added to assay plates individually.
(§3) MT2 cells were mixed with HIV-1 strain NL4-3 (or IIIB, or CNHN24) and the cell/virus mixture was added to the aforementioned antivirus assay plates. After incubation in a 37° C., 5% CO2 incubator, the supernatant from the assay plate was transferred to a new 384-well plate containing the indicator cells with a fire fly luciferase gene under HIV-1 LTR control. The expression level of luciferase was related to HIV-1 infectivity and was measured by Bright-Glo kit (Promega).
(§4) Therapeutic index (TI) was determined by taking ratio of CC50/IC50

The nature of data set [2]: in vitro. To be noted: human, CC50. As for the experimental part: as §1
For cytotoxicity assay the same amount of MT2 cells as in antivirus assay but without HIV-1 virus were added to the cytotoxicity plates. The cytotoxicity was measured by Cell Titer-Glo cell viability assay (Promega).

Data set [3] has as its system HIV-1 strain IIIB. Nature of the data set: Anti-HIV-1 luciferase indicator assay in MT2 cells, IIIB. The following applies: viral strain II B; for IC50: Human immunodeficiency virus 1, IIIB, MT2, MT2 cells, read-out: IC50; for TI / Safety Index (CC50/IC50): MT2 cells. As for the experimental part: as §1, §2, §3, §4
In data set [4] the test system is HIV-1 strain CNHN24. Nature of the data set: Anti-HIV-1 luciferase indicator assay in MT2 cells, CNHN24. To be noted: viral strain CNHN24; for IC50: Human immunodeficiency virus 1, MT2, MT2 cells, read-out: IC50; for TI / Safety Index (CC50/IC50): MT2 cells. As for the experimental part: as §1, §2, §3, §4
In data set [5] the test system is HIV-1 strain 92-HT599. Kind of data set: Anti HIV-1 p24 assay, strain 92-HT599 in MT2 cells. The following applies: Human immunodeficiency virus 1; for IC50: MT2 cells infected with HIV-1 92-HT599, p24, 96 hours; for inhibition at 0.1 µM / inhibition at 1 µM: MT2 cells, read-out: Percent inhibition; for inhibition at 0.1 µM: HIV-1 92-HT599, p24, concentration 0.1 μM; for inhibition at 1 µM: HIV-1 92-HT599, p24, concentration 1 μM. As for the experimental part:
MT2 cells were infected with the HIV-1 strain 92-HT599 (10TCID50/30000 cells). The infected cells are plated at the concentration of 30000 cells per well in a 96 well assay micro plate. A test compound was added to the micro plate in a defined format with the final concentration of DMSO (vehicle) being not more than 1%. Incubation was carried out in a CO2 incubator for 96 hours for viral infection. At the end of incubation period an aliquot from each well was taken for p24 estimation. The quantitation of p24 is an index for antiviral activity of the compound. Percent inhibition was calculated with reference to control values (vehicle).
P24 estimation was carried out using an Advance Biosciences kit as per the procedure as detailed by supplier.
[…] was made by dissolving test compound in DMSO. Subsequent dilutions were made with DMSO to make necessary working stocks (100×).

The structures appear in SMILES notation. Read-outs that look alike come from different tables or passages of the source. Some results are limits rather than exact numbers.

Take `C=C(C)[C@@H]1CC[C@]2(C(=O)N[C@H]3C[C@@H](C(=O)N4CCOCC4)C3(C)C)CC[C@]3(C)[C@H](CC[C@@H]4[C@@]5(C)CC[C@H](O)C(C)(C)[C@@H]5CC[C@]43C)[C@@H]12` [Example 8, (1R,3aS,5aR,5bR,7aR,9S,11aR,11bR,13aR,13bR)-N-((1S,3R)-2,2-dimethyl-3-(morpholine-4-carbonyl)cyclobutyl)-9-hydroxy-5a,5b,8,8,11a-pentamethyl-1-(prop-1-en-2-yl)icosahydro-1H-cyclopenta[a]chrysene-3a-carboxamide]: the IC50 in data set [1] (read-out: IC50) stood at 2.2 µM; in data set [3] it was 3.14 µM; in data set [4] it was 2.83 µM. In addition, the figures for the “TI / Safety Index (CC50/IC50)” value in data set [1], in data set [3] and in data set [4] were 9, 6 and 7, respectively. The same molecule displayed a CC50 in data set [2] of 20 µM.

As to `C=C(C)[C@@H]1CC[C@]2(C(=O)N[C@H]3C[C@@H](C(=O)N4CCOCC4)C3(C)C)CC[C@]3(C)[C@H](CC[C@@H]4[C@@]5(C)CC[C@H](OC(=O)CC(C)(C)C(=O)O)C(C)(C)[C@@H]5CC[C@]43C)[C@@H]12` [Example 9, 4-((1R,3aS,5aR,5bR,7aR,9S,11aR,11bR,13aR,13bR)-3a-((1S,3R)-2,2-dimethyl-3-(morpholine-4-carbonyl)cyclobutylcarbamoyl)-5a,5b,8,8,11a-pentamethyl-1-(prop-1-en-2-yl)icosahydro-1H-cyclopenta[a]chrysen-9-yloxy)-2,2-dimethyl-4-oxobutanoic acid], the values for the concentration for half-maximal inhibition (IC50) in data set [1], in data set [3] and in data set [4] were 0.005 µM, 0.007 µM and 0.008 µM, respectively. Moreover, the “TI / Safety Index (CC50/IC50)” value in data set [1] is 3579; in data set [3] it was 2658; in data set [4] it was 2429. Moreover, the CC50 in data set [2] was greater than 20 µM.

Regarding `C=C(C)[C@@H]1CC[C@]2(C(=O)N[C@H]3C[C@@H](C(=O)N4CCCCC4)C3(C)C)CC[C@]3(C)[C@H](CC[C@@H]4[C@@]5(C)CC[C@H](O)C(C)(C)[C@@H]5CC[C@]43C)[C@@H]12` [Example 11, (1R,3aS,5aR,5bR,7aR,9S,11aR,11bR,13aR,13bR)-N-((1S,3R)-2,2-dimethyl-3-(piperidine-1-carbonyl)cyclobutyl)-9-hydroxy-5a,5b,8,8,11a-pentamethyl-1-(prop-1-en-2-yl)icosahydro-1H-cyclopenta[a]chrysene-3a-carboxamide], the IC50 in data set [1] (read-out: IC50) was 4.25 µM; in data set [3] it was 5.67 µM; in data set [4], 5.88 µM. The “TI / Safety Index (CC50/IC50)” value in data set [1] came to 4.7; in data set [3], 3.5; in data set [4], 3.4. The CC50 in data set [2] is greater than 20 µM.

Molecule `C=C(C)[C@@H]1CC[C@]2(C(=O)N[C@@H]3CC[C@H](CN4CCCC(C)C4)C3)CC[C@]3(C)[C@H](CC[C@@H]4[C@@]5(C)CC[C@H](OC(=O)CC(C)(C)C(=O)O)C(C)(C)[C@@H]5CC[C@]43C)[C@@H]12` (stereo partly drawn) [Example 51, 2,2-dimethyl-4-oxo-4-((1R,3aS,5aR,5bR,7aR,9S,11aR,11bR,13aR,13bR)-5a,5b,8,8,11a-pentamethyl-3a-((1R,3S)-3-((3-methylpiperidin-1-yl)methyl)cyclopentylcarbamoyl)-1-(prop-1-en-2-yl)icosahydro-1H-cyclopenta[a]chrysen-9-yloxy)butanoic acid] had a concentration for half-maximal inhibition (IC50) in data set [5] of 0.001 µM.

On to `C=C(C)[C@@H]1CC[C@]2(C(=O)N[C@@H]3C[C@H](C(=O)N4CCCCC4)C3(C)C)CC[C@]3(C)[C@H](CC[C@@H]4[C@@]5(C)CC[C@H](OC(=O)[C@@H]6C[C@H](C(=O)O)C6(C)C)C(C)(C)[C@@H]5CC[C@]43C)[C@@H]12` [Example 59, (1S,3R)-3-(((1R,3aS,5aR,5bR,7aR,9S,11aR,11bR,13aR,13bR)-3a-((1R,3S)-2,2-dimethyl-3-(piperidine-1-carbonyl)cyclobutylcarbamoyl)-5a,5b,8,8,11a-pentamethyl-1-(prop-1-en-2-yl)icosahydro-1H-cyclopenta[a]chrysen-9-yloxy)carbonyl)-2,2-dimethylcyclobutanecarboxylic acid], for which half-maximal inhibition in data set [5] (IC50) was put at 0.006 µM.

With `C=C(C)[C@@H]1CC[C@]2(C(=O)N[C@H]3C[C@@H](C(=O)N4CCOCC4)C3(C)C)CC[C@]3(C)[C@H](CC[C@@H]4[C@@]5(C)CC[C@H](OC(=O)[C@@H]6C[C@H](C(=O)O)C6(C)C)C(C)(C)[C@@H]5CC[C@]43C)[C@@H]12` [Example 61, (1S,3R)-3-(((1R,3aS,5aR,5bR,7aR,9S,11aR,11bR,13aR,13bR)-3a-((1S,3R)-2,2-dimethyl-3-(morpholine-4-carbonyl)cyclobutylcarbamoyl)-5a,5b,8,8,11a-pentamethyl-1-(prop-1-en-2-yl)icosahydro-1H-cyclopenta[a]chrysen-9-yloxy)carbonyl)-2,2-dimethylcyclobutanecarboxylic acid], the midpoint of inhibition in data set [5], the IC50, lay at 0.007 µM.

In turn, `C=C(C)[C@@H]1CC[C@]2(C(=O)NC3CCC(CN4CCCCC4)C3)CC[C@]3(C)[C@H](CC[C@@H]4[C@@]5(C)CC[C@H](OC(=O)CCC(=O)O)C(C)(C)[C@@H]5CC[C@]43C)[C@@H]12` (stereo partly drawn) [Example 96, 4-oxo-4-((1R,3aS,5aR,5bR,7aR,9S,11aR,11bR,13aR,13bR)-5a,5b,8,8,11a-pentamethyl-3a-(3-(piperidin-1-ylmethyl)cyclopentylcarbamoyl)-1-(prop-1-en-2-yl)icosahydro-1H-cyclopenta[a]chrysen-9-yloxy)butanoic acid] had an IC50 in data set [5] of 0.0001 µM.

On to `C=C(C)[C@@H]1CC[C@]2(C(=O)NC3CC(C(=O)NCCC(=O)N4CCOCC4)C3(C)C)CC[C@]3(C)[C@H](CC[C@@H]4[C@@]5(C)CC[C@H](O)C(C)(C)[C@@H]5CC[C@]43C)[C@@H]12` (stereo partly drawn) [Example 97, (1R,3aS,5aR,5bR,7aR,9S,11aR,11bR,13aR,13bR)-N-(2,2-dimethyl-3-(3-morpholino-3-oxopropylcarbamoyl)cyclobutyl)-9-hydroxy-5a,5b,8,8,11a-pentamethyl-1-(prop-1-en-2-yl)icosahydro-1H-cyclopenta[a]chrysene-3a-carboxamide], for which, in data set [5], the inhibition at 0.1 µM amounted to 37% and the inhibition at 1 µM was determined as 67%.

For the molecule `C=C(C)[C@@H]1CC[C@]2(C(=O)NC3CC(C(=O)NCCC(=O)N4CCCC4)C3(C)C)CC[C@]3(C)[C@H](CC[C@@H]4[C@@]5(C)CC[C@H](O)C(C)(C)[C@@H]5CC[C@]43C)[C@@H]12` (stereo partly drawn) [Example 98, (1R,3aS,5aR,5bR,7aR,9S,11aR,11bR,13aR,13bR)-N-(2,2-dimethyl-3-(3-oxo-3-(pyrrolidin-1-yl)propylcarbamoyl)cyclobutyl)-9-hydroxy-5a,5b,8,8,11a-pentamethyl-1-(prop-1-en-2-yl)icosahydro-1H-cyclopenta[a]chrysene-3a-carboxamide], in data set [5], the inhibition at 0.1 µM is 1% and the inhibition at 1 µM turned out to be 50%.

As to `C=C(C)[C@@H]1CC[C@]2(C(=O)N[C@@H]3CC[C@H](CN4CCC(Cc5ccccc5)CC4)C3)CC[C@]3(C)[C@H](CC[C@@H]4[C@@]5(C)CC[C@H](OC(=O)CC(C)(C)C(=O)O)C(C)(C)[C@@H]5CC[C@]43C)[C@@H]12` [Example 99, 4-((1R,3aS,5aR,5bR,7aR,9S,11aR,11bR,13aR,13bR)-3a-((1R,3S)-3-((4-benzylpiperidin-1-yl)methyl)cyclopentylcarbamoyl)-5a,5b,8,8,11a-pentamethyl-1-(prop-1-en-2-yl)icosahydro-1H-cyclopenta[a]chrysen-9-yloxy)-2,2-dimethyl-4-oxobutanoic acid], in data set [5], the inhibition at 0.1 µM was 89% and the inhibition at 1 µM amounted to 97%.
